Columns and labels:
[1] = Rate of weight loss by TG/DTA; format: physicochemical; settings: heated in nitrogen gas from 25° C. to 300° C. at 10° C./minute
Method: Regarding the requirement (c), the rate of decrease in weight by heating under the above conditions is preferably less than 5%, and further preferably less than 3%, from a viewpoint of an emission amount of VOC and light stability. A rate of decrease in weight of the hindered amine light stabilizer (B) is measured using a thermo gravimetry differential thermal analyzer (hereinafter, referred to as TG/DTA). Specifically, the hindered amine light stabilizer (B) is heated from 25° C. to 300° C. at a rate of 10° C./minute in a nitrogen gas atmosphere, which gas is flowed at a constant rate of 100 mL/minute, thereby measuring the rate (percentage) of a weight loss to the original weight with a thermobalance.

[2] = Acid dissociation constant (pKa) by titration method
Method: The pKa value is an index showing an inherent nature of the compound having a 2,2,6,6-tetramethylpiperidyl group represented by the general formula (I), and is measured by a titration method known in the art, which is a measurement method of an acid dissociation constant based on a Brøsted's definition.

| Molecule | Rate of weight loss by TG-DTA [1] [%] | pKa [2] |
| --- | --- | --- |
| CC1(C)CC(OC(=O)CCCCCCCCC(=O)OC2CC(C)(C)NC(C)(C)C2)CC(C)(C)N1 [Example B-3, bis(2,2,6,6-tetramethyl-4-piperidyl) sebacate] | 19.6 | – |
| N,N-bis(3-aminopropyl)ethylenediamine. 2,4-bis[N-butyl-N-(1,2,2,6,6-pentamethyl-4-piperidyl)amino]-6-chloro-1,3,5-triazine condensate [Example B-5] | 0.6 | 9.2 |
| CN1C(C)(C)CC(OC(=O)CC(C(=O)OC2CC(C)(C)N(C)C(C)(C)C2)C(CC(=O)OC2CC(C)(C)N(C)C(C)(C)C2)C(=O)OC2CC(C)(C)N(C)C(C)(C)C2)CC1(C)C (stereo not shown) [Example B-2, tetrakis(1,2,2,6,6-pentamethyl-4-piperidyl) 1,2,3,4-buteane tetracarboxylate] | 5.8 | 8.9 |

The next lines start with results.

| Rate of weight loss by TG-DTA [1] [%] | Molecule | pKa [2] |
| --- | --- | --- |
| 68.6 | CCCCCCCCON1C(C)(C)CC(OC(=O)CCCCCCCCC(=O)OC2CC(C)(C)N(OCCCCCCCC)C(C)(C)C2)CC1(C)C [Example B-4, bis(1-octyloxy-2,2,6,6-tetramethylpiperidin-4-yl) sebacate] | – |
| 31.6 | CC(C)(C)c1ccc(OC(=O)c2cc(C(C)(C)C)c(O)c(C(C)(C)C)c2)c(C(C)(C)C)c1 [Example B-6, 2,4-di-t-butylphenyl-3,5-di-t-butyl-4-hydroxybenzoate] | – |

Reference: patent publication US20100233456A1, “LIGHT-STABILIZED POLYPROPYLENE” (SUMITOMO CHEMICAL COMPANY, LIMITED, priority 2007, published 2010)
